Test results reported in US7554012B2, “Plants and plant cells exhibiting resistance to AMPA, and methods for making the same” (priority 1998, dated 2009).
Read-outs that look alike come from different tables or passages of the source.

Columns and labels:
[1] = molecular target: T1, purified PhnO protein (Escherichia coli, UniProt P16691, P2A); assay: AMPA transacylase acyl-CoA acyl donor specificity, HPLC; type: biochemical, E. coli; settings: for [^14C]-AMPA % Conversion: 5 minutes 30° C.; for % Activity: 1 mM acetyl-CoA = 100% reference
T1 construct: made in house; host or cells: E. coli JM101 carrying pMON15032 (recA promoter, nalidixic acid induction)
Method: PhnO was purified from a one liter Luria Bertani broth culture of E. coli JM101 expressing a recombinant phnO gene from pMON15032 after nalidixic acid induction for three hours at 37° C. Cells were harvested by centrifugation and resuspended in 40 ml cold Tris buffer (0.1 M Tris-HCl pH 8) and placed on ice. The cell suspension was brought to 1 mM DTT and 0.5 mM PMSF. The suspension was lysed by 2 passages through a prechilled French pressure cell at 1,100 psi, centrifuged at 12,000 g (10,000 rpm in an Sorvall SA600 rotor) for 40 min at 4° C., then placed on ice. The cleared supernatants were poured into fresh 15 ml polypropylene tubes. The samples were split again into two equal portions and maintained at −80° C. until used further for purification of PhnO protein. 20 microliters of the soluble fraction was assayed for enzyme activity using the HPLC method described above in Example 2, except after terminating the assay with acid addition, the sample was stored at −80° C. A Sephacryl S200 column was prepared according to the manufacturers' instructions and equilibrated with a solution containing 20 mM Tris pH 8.0 and 0.5 mM MgCl2. The entire total soluble extract was layered over the top of the column bed after thawing on ice. Forty 9 ml fractions were collected from the column eluate, and thirty microliters of each fraction was analyzed by western blot using anti-PhnO antiserum after resolution on a 15% SDS-PAGE gel. Also, thirty microliters of each fraction was analyzed for AMPA acyl transferase activity using the method described in Example 2. […] These were represented by fractions 7 through 19 in this example, and were combined into a 100 ml volume, distributed into […] each containing 10 ml volumes, and stored at −80° C. for further use.
Anion exchange chromatography was used to determine the elution pattern of PhnO away from other contaminating proteins that co-elute during the Sephacryl S200 fractionation. One tube from the combined PhnO positive fractions was thawed on ice and injected into a 5/5 Mono-Q column pre-equilibrated with buffers A (one liter of 20 mM Tris-HCl pH 8.0 Mili-Q distilled deionized water) and B (one liter of 20 mM Tris-HCl pH 8.0, 1 M NaCl). The sample containing PhnO active protein was injected into the column and one milliliter fractions were collected. The column was washed for five minutes with a flow rate of 1.8 ml per minute Buffer A after loading the PhnO containing sample. At five minutes, Buffer B was added to the flow volume at 0.5 ml per minute for four minutes. Buffer B was ramped up to 22% of the flow volume at 10 minutes, 30% at 12 minutes, 36% at 13 minutes, 41% at 14 minutes, 46% at 15 minutes, 74% at 16 minutes, and 100% at 16 minutes through 22 minutes, at which point Buffer B flow was terminated and Buffer A was reinitiated at 100% to equilibrate the column. Ten microliter volumes from individual fractions collected from the Mono-Q column were analyzed by western blot and for transacylase activity as described in Example 2. […] Samples of this purified PhnO protein were used to determine enzyme's acyl donor substrate specificity.
Enzyme reactions were prepared as follows. […] A assay premix was prepared from which 45 microliters was used in each 100 microliter reaction. This 45 microliter premix sample consisted of 40 microliters distilled and deionized water, 2 microliters of 50 mM MgCl2, and 3 microliters of 1.3 mM [^14C]-AMPA (115,392 dpm per microliter). Reactions were initiated by mixing 40 microliters of 125 mM Tris-HCl pH 8.0, […] protein sample and 10 microliters acyl-CoA acyl donor compound in a microcentrifuge tube at room temperature. Each acyl-CoA acyl donor compound was prepared as a stock solution of 1 mM, 5 mM or 10 mM stocks. Each tube was then mixed with 45 microliters of the assay premix containing the [^14C]-AMPA […] substrate, mixed gently and transferred to a 30° C. water bath for 5 minutes. […]

[2] = molecular target: T2, PhnO enzyme (Escherichia coli, UniProt P16691, P2A)
Method: The apparent Km of PhnO for the substrate acetyl-CoA was determined in similar experiments. After several attempts to obtain end point kinetics, it was determined that the turnover number was too low to be reliable at AMPA concentrations of about 30 mM and enzyme amounts of about 1-10 ng. An alternative approach was tried using tritium labeled acetyl-CoA. The specific activity of the label was about 40× higher than with [^14C], providing a gain in sensitivity that allowed for the determination of the apparent Km of PhnO for Acetyl-CoA. The [^3H]-acetyl-CoA (Amersham, Inc.) specific activity was 360 mCi/mg or 250 μCi/ml. […] This was accomplished by adjusting the concentration of KH2PO4 buffer (pH 5.5) to 40 mM with a flow rate of 1 ml per minute over an AX100 weak anion exchange column. Each sample was reacted with PhnO and 30 mM AMPA for five minutes at 37° C. and quenched with 100 mM NaOAc pH 4.4 in ethanol, then analyzed by HPLC. [^3H]-acetyl-CoA substrate ranged from 25 micromolar to 1.3 mM in each reaction along with about 5 ng PhnO, 50 mM Tris pH 7.5, 1 mM MnCl2, 1 mM MgCl2, and 30 mM AMPA. Samples were analyzed by HPLC to determine the amounts of N-[^3H]-acetyl-AMPA produced, and [^3H]-acetyl-CoA remaining.

[3] = system: Wheat immature embryos; assay: Wheat embryo germination assay; type: in vivo; settings: for Germinating root length / Germinating shoot length: ten days
Method: Wheat immature embryos were exposed to different concentrations of AMPA and N-acetyl-AMPA in a wheat embryo germination assay. MMSO base media was prepared containing 40 grams per liter maltose, 2 grams per liter GELRITE™, MS salts, and vitamins. Salts, vitamins, and maltose were dissolved in 3500 ml water and the pH was adjusted to 5.8. 500 ml was dispensed into a separate bottle along with 1 gram of GELRITE™ and autoclaved for 17 minutes. After the medium had cooled to about 45° C., AMPA or N-acetyl-AMPA was added to a defined concentration. The mixture was poured into six square Sundae cups under sterile conditions and allowed to solidify.
Immature wheat embryos were isolated from twenty day old seedlings (after anther formation) and inoculated into each MMSO media. Each Sundae cup contained nine immature embryo's. Three separate plates were used for each concentration of AMPA (0, 0.1, 0.15, 0.2, 0.25, 0.3, and 1.0 mM) or N-acetyl-AMPA (0, 0.1, 0.3, 1.0, and 3.0 mM). Sundae cups were incubated for ten days and the length of roots and shoots were determined and compared.

[4] = system: Tobacco callus; assay: Tobacco callus growth on plates with AMPA or N-acetyl AMPA; type: cell-based, Nicotiana tabacum cv. "Samsun"; settings: plates with 0.1 mM or 0.4 mM, up to three weeks
Method: Tobacco callus was generated from leaf pieces of wild type Nicotiana tabacum cv. “Samsun” tobacco on MS104 plates (MS salts 4.3 g/l, sucrose 30 g/l, B5 vitamins 500X 2 ml/l, NAA 0.1 mg/l, and Bacto Agar […]). Callus tissue was applied to plates with or without AMPA and with or without N-acetyl AMPA. Plates contained AMPA or N-acetyl AMPA at concentrations of 0.1 mM or 0.4 mM. Plates were incubated for up to three weeks and monitored periodically.

[5] = molecular target: T2, PhnO enzyme; remark: listed apart in the source
Method: The ability of the enzyme to produce N-acetyl AMPA from a mixture containing acetyl-CoA and AMPA across a range of pH values was determined. The reactions were carried out in MES/MOPS/Tricine buffer equilibrated to a pH value from 4.5 to 9.0, with actual pH values ranging from 5.2 through 9.0. Briefly, 95 microliters of an appropriate buffer was mixed with 100 microliters of 2×assay mix as described in example 4, and 5 microliters of desalted E. coli lysate containing approximately 400 ng/microliter PhnO protein.

[6] = system: AMPA acyltransferase activity; assay: AMPA acyltransferase HPLC assay of bacterial lysates; type: biochemical; settings: lysates of induced E. coli JM101 transformants
[7] = any concentration tested (0.1-3.0 mM)

`CC(=O)SCCNC(=O)CCNC(=O)[C@H](O)C(C)(C)COP(=O)(O)OP(=O)(O)OC[C@H]1O[C@@H](n2cnc3c(N)ncnc32)[C@H](O)[C@@H]1OP(=O)(O)O` [Acetyl-CoA] was tested, and the “[^14C]-AMPA % Conversion” value ([1]; acyl donor 0.1 mM) was 79.2%, the “% Activity” value ([1]; acyl donor 0.1 mM) was 79.2% and the “[^14C]-AMPA % Conversion” value ([1]; acyl donor 0.5 mM) was 98.7%. For the same molecule, the “% Activity” value ([1]; acyl donor 0.5 mM) was 98.7%, the “[^14C]-AMPA % Conversion” value ([1]; acyl donor 1 mM) was 100.00% and the “% Activity” value ([1]; acyl donor 1 mM) was 100.00%. It also gave a Velocity ([2]; [Acetyl-CoA] 25 micromolar, 30 mM AMPA) of 34, a Velocity ([2]; [Acetyl-CoA] 50 micromolar) of 66 and a Velocity ([2]; [Acetyl-CoA] 75 micromolar) of 94. The Velocity ([2]; [Acetyl-CoA] 100 micromolar) was 125, the Velocity ([2]; [Acetyl-CoA] 125 micromolar) was 150 and the Velocity ([2]; [Acetyl-CoA] 150 micromolar) was 173. For the same molecule, the Velocity ([2]; [Acetyl-CoA] 175 micromolar) was 193, the Velocity ([2]; [Acetyl-CoA] 200 micromolar) was 219 and the Velocity ([2]; [Acetyl-CoA] 225 micromolar) was 240. For the same molecule, the Velocity ([2]; [Acetyl-CoA] 250 micromolar) was 259, the Velocity ([2]; [Acetyl-CoA] 375 micromolar) was 339 and the Velocity ([2]; [Acetyl-CoA] 390 micromolar) was 287. It also gave a Velocity ([2]; [Acetyl-CoA] 520 micromolar) of 331, a Velocity ([2]; [Acetyl-CoA] 650 micromolar) of 352 and a Velocity ([2]; [Acetyl-CoA] 780 micromolar) of 372. For the same molecule, the Velocity ([2]; [Acetyl-CoA] 910 micromolar) was 397, the Velocity ([2]; [Acetyl-CoA] 1040 micromolar) was 411 and the Velocity ([2]; [Acetyl-CoA] 1170 micromolar) was 425. For the same molecule, the Velocity ([2]; [Acetyl-CoA] 1300 micromolar) was 434, the “apparent Vmax” value ([2]; acetyl-CoA substrate, Lineweaver-Burk plot) was “about 824 U/mg protein” and the Km ([2]; read-out: apparent Km of PhnO for acetyl-CoA as a substrate, 30 mM AMPA, Lineweaver-Burk plot of Table 9 data) was 375 to 390 µM.

Work on “N-acetyl-amino-methyl-phosphonate [N-acetyl AMPA]” yielded a Germinating root length ([3]; 0.10 mM) of 5.9 ± 1.4 cm, a Germinating shoot length ([3]; 0.10 mM) of 12.0 ± 2.4 cm and a Germinating root length ([3]; 0.30 mM) of 5.2 ± 1.2 cm. The Germinating shoot length ([3]; 0.30 mM) was 11.7 ± 3.5 cm, the Germinating root length ([3]; 1.00 mM) was 5.4 ± 1.5 cm and the Germinating shoot length ([3]; 1.00 mM) was 12.2 ± 3.2 cm. For the same molecule, the Germinating root length ([3]; 3.00 mM) was 5.9 ± 1.6 cm, the Germinating shoot length ([3]; 3.00 mM) was 11.2 ± 2.6 cm and the “inhibition of root elongation” value [3, 7] was “only mildly inhibitory”. For the same molecule, the inhibition of shoots [3, 7] was “not inhibitory”, the “concentration with no significant effects to immature embryo germination” value ([3]; in vivo) was “less than 3.0 mM” and the “growth of tobacco callus tissue” value [4] was “not inhibited”.

B1: PhnO: AMPA acyltransferase protein encoded by the phnO gene within the E. coli phn operon (protein)
chain: MAACELRPATQYDTDAVYALICELKQAEFDHHAFRVGFNANLRDPNMRYHLALLDGEVVGMIGLHLQFHLHHVNWIGEIQELVVMPQARGLNVGSKLLAWAEEEARQAGAEMTELSTNVKRHDAHRFYLREGYEQSHFRFTKAL
With B1 the “pH of optimum PhnO transacylase activity” value ([5]; AMPA and acetyl-CoA as substrates) was about 8.0 pH, the “N-Acetyl CoA” value ([5]; Buffer pH 5.0) was 222 nmol and the Velocity ([5]; Buffer pH 5.0) was 22.2 nmole/min/microgram. For the same molecule, the “% Turnover” value ([5]; Buffer pH 5.0 (mock reaction pH 5.23)) was 3.7%, the “N-Acetyl CoA” value ([5]; Buffer pH 5.5) was 234 nmol and the Velocity ([5]; Buffer pH 5.5) was 23.4 nmole/min/microgram. The “% Turnover” value ([5]; Buffer pH 5.5 (mock reaction pH 5.62)) was 3.9%, the “N-Acetyl CoA” value ([5]; Buffer pH 6.0) was 252 nmol and the Velocity ([5]; Buffer pH 6.0) was 25.2 nmole/min/microgram. For the same molecule, the “% Turnover” value ([5]; Buffer pH 6.0 (mock reaction pH 5.92)) was 4.2%, the “N-Acetyl CoA” value ([5]; Buffer pH 6.5) was 798 nmol and the Velocity ([5]; Buffer pH 6.5) was 79.8 nmole/min/microgram. The “% Turnover” value ([5]; Buffer pH 6.5 (mock reaction pH 6.47)) was 13.3%, the “N-Acetyl CoA” value ([5]; Buffer pH 7.0) was 1620 nmol and the Velocity ([5]; Buffer pH 7.0) was 162.0 nmole/min/microgram. For the same molecule, the “% Turnover” value ([5]; Buffer pH 7.0 (mock reaction pH 7.0)) was 27.0%, the “N-Acetyl CoA” value ([5]; Buffer pH 7.5) was 1920 nmol and the Velocity ([5]; Buffer pH 7.5) was 192.0 nmole/min/microgram. The “% Turnover” value ([5]; Buffer pH 7.5 (mock reaction pH 7.48)) was 32.0%, the “N-Acetyl CoA” value ([5]; Buffer pH 8.0) was 2058 nmol and the Velocity ([5]; Buffer pH 8.0) was 205.8 nmole/min/microgram. For the same molecule, the “% Turnover” value ([5]; Buffer pH 8.0 (mock reaction pH 8.05)) was 34.3%, the “N-Acetyl CoA” value ([5]; Buffer pH 8.5) was 2010 nmol and the Velocity ([5]; Buffer pH 8.5) was 201.0 nmole/min/microgram. The “% Turnover” value ([5]; Buffer pH 8.5 (mock reaction pH 8.46)) was 33.5%, the “N-Acetyl CoA” value ([5]; Buffer pH 9.0) was 2034 nmol and the Velocity ([5]; Buffer pH 9.0) was 203.4 nmole/min/microgram. For the same molecule, the “% Turnover” value ([5]; Buffer pH 9.0 (mock reaction pH 9.0)) was 33.9%.

B2: CTP-PhnO peptide: chloroplast transit peptide fused to PhnO (SEQ ID NO:12) (protein)
chain: MASSMLSSATMVASPAQATMVAPFNGLKSSAAFPATRKANNDITSITSNGGRVNCMQVWPPIGKKKFETLSYLPDLTDSGGRVNCMQAMAACELRPATQYDTDAVYALICELKQAEFDHHAFRVGFNANLRDPNMRYHLALLDGEVVGMIGLHLQFHLHHVNWIGEIQELVVMPQARGLNVGSKLLAWAEEEARQAGAEMTELSTNVKRHDAHRFYLREGYEQSHFRFTKAL
In the case of B2, the “AMPA acyltransferase activity of cell lysates” value [6] is reported as “retain full enzymatic acyltransferase activity”.
